From ChEMBL document CHEMBL1201862, “PubChem BioAssay data set” (2004)
Activity calls are given as the source filed them.

Experiments:
Prothrombin = Prothrombin (Homo sapiens, UniProt P00734); test: Thrombin 1536 HTS Dose Response Confirmation. [Related pubchem assays: 1046 (Thrombin 1536 HTS; hits were confirmed in this assay)]; type: functional
[1] = inhibitors of intracellular T. cruzi replication, confirmation, NIH3T3 host cells, beta-gal luminescence (AID 2044); type: functional, cell-based;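 also: intracellular parasites grown in NIH/3T3 mouse fibroblasts as host cells; luminescent beta-galactosidase reporter signal from transgenic T. cruzi replicating inside host cells; inhibitors lower the luminescence signal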
[2] = cytotoxicity toward NIH3T3 fibroblasts, dose response, counter-screen, cell-based, ATP luminescence, mouse fibroblasts (AID 2010); type: functional;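 also: cells exposed to compound for about 90 hours before reading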
[3] = test system: Streptococcus sp. 'group A'; test: growth inhibition of control SK(-) GAS strain, dose response, counter-screen for streptokinase expression inhibitor project, luminescence, kanamycin, BacTiterGlo, confirmation (AID 1900); type: functional, organism-based; conditions: Streptococcus sp. 'group A'
cells [4] = type: functional, cell-based
Streptococcus = test: Group A Streptococcus viability loss, dose response, counter-screen for streptokinase expression inhibitor project, luminescence, BacTiterGlo (AID 1915); type: functional, organism-based; conditions: Streptococcus;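 also: potency for reduction of bacterial viability or growth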
cells [5] = type: functional, cell-based; remark: listed apart in the source
Vero = test: host cell cytotoxicity of antiviral hits, dose response, cytotoxicity control for West Nile virus antiviral project, secondary assay (AID 1650); type: functional; conditions: Chlorocebus sabaeus
[6] = microbe, parasite or virus in culture; type: functional; conditions: Mycobacterium tuberculosis
Aspartyl aminopeptidase = biological target: T1, Aspartyl aminopeptidase (Plasmodium falciparum 3D7, UniProt Q8I2J3); test: Counterscreen for inhibitors of M1 and M17 aminopeptidases: QFRET-based biochemical high throughput dose response assay for inhibitors of the Plasmodium falciparum M18 Aspartyl Aminopeptidase (PFM18AAP). [Related PubChem assays: 1619 (Screening assay (M17LAP inhibitors).), 1445 (Screening assay (M1AAP inhibitors).)]
T1 sequence (Q8I2J3 whole entry): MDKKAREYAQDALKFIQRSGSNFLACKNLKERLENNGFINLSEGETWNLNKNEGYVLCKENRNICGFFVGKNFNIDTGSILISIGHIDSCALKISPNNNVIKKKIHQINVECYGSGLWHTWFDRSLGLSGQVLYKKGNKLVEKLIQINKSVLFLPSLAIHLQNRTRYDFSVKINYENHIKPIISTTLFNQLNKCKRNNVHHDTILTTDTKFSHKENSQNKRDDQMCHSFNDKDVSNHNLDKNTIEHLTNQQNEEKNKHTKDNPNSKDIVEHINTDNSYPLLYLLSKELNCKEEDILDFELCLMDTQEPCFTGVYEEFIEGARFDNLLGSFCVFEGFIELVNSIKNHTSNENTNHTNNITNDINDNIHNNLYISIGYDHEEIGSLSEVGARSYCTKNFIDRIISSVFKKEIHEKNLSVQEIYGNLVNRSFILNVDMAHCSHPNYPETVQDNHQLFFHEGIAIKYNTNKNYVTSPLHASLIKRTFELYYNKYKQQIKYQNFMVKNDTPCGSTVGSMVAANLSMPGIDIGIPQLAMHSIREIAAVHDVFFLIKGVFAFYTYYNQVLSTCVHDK

Leucine aminopeptidase = biological target: T2, Leucine aminopeptidase (Plasmodium falciparum 3D7, UniProt Q8IL11); test: P. falciparum M17LAP inhibitors, primary screen, biochemical, fluorogenic H-Leu-NHMec substrate, 1536-well (AID 1619); type: functional
T2 sequence (Q8IL11 whole entry): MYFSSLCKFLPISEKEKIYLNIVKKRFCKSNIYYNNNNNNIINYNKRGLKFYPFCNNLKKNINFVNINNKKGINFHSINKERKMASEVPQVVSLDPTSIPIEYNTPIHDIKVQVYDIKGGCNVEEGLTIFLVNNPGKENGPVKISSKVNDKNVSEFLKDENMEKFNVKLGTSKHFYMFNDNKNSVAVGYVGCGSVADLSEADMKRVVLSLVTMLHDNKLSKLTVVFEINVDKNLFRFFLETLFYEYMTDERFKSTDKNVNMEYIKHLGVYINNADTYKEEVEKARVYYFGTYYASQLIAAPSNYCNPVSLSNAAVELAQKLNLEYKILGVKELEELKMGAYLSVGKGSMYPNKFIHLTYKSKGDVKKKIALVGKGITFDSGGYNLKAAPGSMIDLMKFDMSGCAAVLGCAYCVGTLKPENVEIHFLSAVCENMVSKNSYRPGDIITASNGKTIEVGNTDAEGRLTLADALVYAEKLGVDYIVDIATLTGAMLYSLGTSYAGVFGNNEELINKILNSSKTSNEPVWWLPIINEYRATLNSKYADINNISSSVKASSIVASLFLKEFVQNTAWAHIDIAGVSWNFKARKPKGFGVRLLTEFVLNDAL

Procathepsin L = Procathepsin L (Homo sapiens, UniProt P07711); test: cathepsin L inhibitors, dose response, counter-screen for M1/M17 aminopeptidase inhibitor project, biochemical, QFRET, 1536-well (AID 2214)
Sequence of Procathepsin L (P07711 whole entry): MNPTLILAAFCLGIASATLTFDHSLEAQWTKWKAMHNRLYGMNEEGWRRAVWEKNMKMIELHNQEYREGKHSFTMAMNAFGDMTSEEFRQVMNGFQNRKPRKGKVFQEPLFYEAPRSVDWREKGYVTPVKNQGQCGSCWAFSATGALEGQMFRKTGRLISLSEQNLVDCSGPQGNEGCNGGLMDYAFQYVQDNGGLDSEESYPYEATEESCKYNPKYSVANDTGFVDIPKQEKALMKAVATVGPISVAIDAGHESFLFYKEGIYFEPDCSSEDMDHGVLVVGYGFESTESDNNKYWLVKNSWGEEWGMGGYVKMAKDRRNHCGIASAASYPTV

CCOc1ccc(NC(=O)C(C)O)c(NS(=O)(=O)c2ccc(CCNC(C)=O)cc2)c1 (centres undefined)
IC50 (Prothrombin): > 50 µM (not active)

Cc1cccc(C)c1Nc1c(-c2ccccn2)nc2ccccn12
EC50 [1]: 1.45 µM (active)
EC50 [2]: 6.81 µM (active)
EC50 [3]: 2.52 µM (active)
EC50 (cells [4]): > 350 µM (not active)
EC50 (Streptococcus): 6.43 µM (active)
EC50 (cells [5]): 92.4 µM (active)
CC50 (Vero): 4.16 µM (active)
CC50 [6]: 3.91 µM (active)

O=C(Nc1ccccc1-c1nc2ccccc2s1)c1ccco1
CC50 (Vero): 12.8 µM (active)

Cc1ccc(-n2c(C)cc(C(=O)COC(=O)c3ccc[nH]c3=O)c2C)cc1
IC50 (Aspartyl aminopeptidase): > 73.5 µM (not active)
IC50 (Leucine aminopeptidase): 1.22 µM (active)
IC50 (Procathepsin L): > 59.6 µM (not active)

CCCC(C)C(=O)Nc1ccc(F)c(Cl)c1 (centres undefined)
IC50 (Prothrombin): > 50 µM (not active)
